Assay results reported in patent US20260055118A1, “VISIBLE LIGHT SENSITIVE PHOTOREMOVABLE PROTECTING GROUPS, PREPARATION PROCESS THEREOF, PHOTOACTIVATABLE CONJUGATES COMPRISING THEM AND USES THEREOF” (HUN-REN TERMÉSZETTUDOMÁNYI KUTATÓKÖZPONT, priority 2022, published 2026).

What was measured:
SK-OV-3 cells = experiment: Cytotoxicity determination, MTT assay, with light irradiation and in the dark; format: cell-based, human; settings: for cell viability: DARK
Protocol: A viability test was carried out to assess the toxicity of SN38 as well as the photoremovable protecting group-SN38 conjugates X1′-SN38 and X2′-SN38 after light irradiation and in the dark on SKOV3 cells. Cells were transferred into a 48-well plate (Thermo Fisher Scientific, 130187) (4,500 cells/well) and incubated for 20-24 h at 37° C. in a 5% CO2 atmosphere in McCoy's 5A (Modified) Medium, HEPES (Gibco 22330021) supplemented with 10% FBS (Gibco 10500-064), 1% penicillin-streptomycin (Gibco 15140-122). Cells were treated with compounds in the concentration range of 10^−11-10^−4 M for 90 min followed by light irradiation or kept in the dark at 37° C. in 5% CO2 atmosphere. After treatment and irradiation, cells were kept at 37° C. in 5% CO2 atmosphere for 72 hours. After the incubation period, supernatants were replaced with 0.5 mg/ml MTT (3-(4,5-dimethylthiazol-2-yl)-2,5-diphenyltetrazolium bromide; Sigma M5655-1G) solution (in complete DMEM: Dulbecco's modified Eagle's medium (DMEM, Gibco 41965-039), supplemented with 10% FBS (Gibco 10500-064), 1% penicillin-streptomycin (Gibco 15140-122), 1% Glutamax (Gibco 35050-061) and 1% sodium pyruvate (Life Technologies, Gibco 11360-070)) and incubated for 120 min at 37° C. in the dark. The insoluble formazan crystals were dissolved in 250 μl DMSO. Absorbance was detected at 540 nm using a Biotek Synergy 2 Cytation 3 imaging plate reader with Gen5 software version 3.08 (Biotek Winooski, VT, USA). Viability was expressed as percentage (n=3) of the readings of untreated control cells.
To determine phototoxic properties of compounds X1′-SN38 and X2′-SN38, standard MTT assays were performed on SK—OV-3 cells. To irradiate multiple specimens, an LED panel was custom-made for a 48-well plate consisting of 24 LEDs using green (4 W input power, λmax=549 nm half-width: 16 nm, output power: 72 mW), orange (4 W input power, λmax=605 nm half-width: 10 nm, output power: 140 mW) and red (4 W input power, λmax=658 nm half-width: 10 nm, for Q=CMe2 output power: 210 mW) LED irradiation. The board was specifically designed for the plates and offer water cooling to minimize heat shock to cells. Every second well can be irradiated with an individual LED. First, the cytotoxicity of the free active agent, SN38 was determined to be EC50 ^˜6 nM. Treatment of cells with the photoactivatable SN38 derivatives for 72 hours in the absence of light (without washing) produced moderate cytotoxic effects, sigificantly lowering the effectiveness of the active agent. This confirms that SN38 is a suitable candidate for light-activated prodrug applications. […] Reducing the irradiation time down to 10 s still produced significant phototoxicity in higher concentrations (see FIG. 8a for compound X2′-SN38) even assuming incomplete uncaging as a result of the substantial dark stability of compound X2′-SN38.

[1] = Spectroscopic properties of the target conjugates in PBS; format: physicochemical; settings: for ε (molar absorption coefficient): at the absorption maximum
Protocol: All starting materials were obtained from commercial suppliers and used without further purification. Analytical thin-layer chromatography (TLC) was performed on silica gel 60 F254 precoated aluminum TLC plates from Merck. Flash column chromatography was performed on Teledyne Isco CombiFlash® Rf+ automated flash chromatographer with silica gel (25-40 μm) from Zeochem. NMR spectra were recorded on a Varian Inova 500 MHz spectrometer. Chemical shifts (δ) are given in parts per million (ppm) using solvent signals or TMS as the reference. Coupling constants (J) are reported in Hertz (Hz). Analytical RP-HPLC-UV/Vis-MS measurements were employed using a Shimadzu LCMS-2020 instrument applying a Gemini C18 column (100×2.00 mm I.D.) in which the stationary phase is […] with a pore size of 110 Å. The chromatograms were detected by a UV-Vis diode array (190-800 nm) and an ESI-MS detector. The following linear gradient elution profile was applied, 0 min 0% B; 6.5 min 100% B; 7 min 0% B; 8 min. 0% B) with eluent A (2% HCOOH, 5% MeCN and 93% water) and B (2% HCOOH, 80% MeCN and 18% water) at a flow rate of 1.0 mL min-1 at 30° C. The samples were dissolved in MeCN—water mixtures. Spectroscopic measurements were performed on a Jasco FP 8300 spectrofluorometer. Quartz cuvettes with path length of 1 cm were used.
The spectroscopic properties of the target conjugates were determined in PBS. […] Compounds with Q=O have absorption bands in the green-yellow region while Q=CMe2 derivatives absorb in the red (up to 700 nm). All of the compounds have moderate to high absorption coefficients and significant fluorescence. The spectroscopic details can be found in Table 1. In the table, λmax means absorption maximum; λem means fluorescence emission maximum; s means molar absorption coefficient (at the absorption maximum).

[2] = Uncaging experiments, LED irradiation followed by HPLC-UV-MS; format: physicochemical; settings: red light
Protocol: The uncaging experiments were performed using green (4 W input power, λmax=549 nm half-width: 16 nm, output power: 72 mW), orange (4 W input power, λmax=605 nm half-width: 10 nm, output power: 140 mW) and red (4 W input power, λmax=658 nm half-width: 10 nm, output power: 210 mW) LEDs as light source. Sample solutions were prepared, each containing 1 ml of solvent (90% v/v water-MeCN or 90% PBS-MeCN or 100% methanol for the photochemical quantum yield determination) and 0.1 mM or 0.05 mM concentration of the photoactivatable conjugates. The samples were irradiated for a given time using continuous water cooling for the light source. Then, the samples were transferred to the HPLC-UV-MS system and the chromatograms were recorded. The traces at 195 nm, 254 nm or 369 nm (dependent on the cargo moieties) and at the absorption maxima of the photoremovable protecting groups (530 nm, 570 nm or 640 nm) were compared and the corresponding peaks were integrated and compared to reference calibration sets. The possible photoproducts were identified by their corresponding m/z value and also from the UV/VIS spectra from the DAD-equipped instrument. For the dark stability experiments, the HPLC sample solutions were kept in the dark and chromatograms were recorded multiple times.
The photouncaging was evaluated by HPLC-MS using green (4 W input power, λmax=549 nm half-width: 16 nm, output power: 72 mW), orange (4 W input power, λmax=605 nm half-width: 10 nm, output power: 140 mW) and red (4 W input power, λmax=658 nm half-width: 10 nm, for Q=CMe2 output power: 210 mW) LED irradiation. For all compounds the experiments were performed in 90% water/MeCN mixtures as well as in 90% PBS/MeCN (0.1 mM concentration). In all cases, the irradiation led to the release of the model active agents with significant differences based on the photoremovable protecting group, cargo unit and the connecting chemical moiety as well as on the water content of the uncaging medium. Comparing the green light absorbing target conjugates, irradiation of 39 led to the release of 54% phenylacetic acid in 60 s (FIG. 6b), while 180 s (for 50%) was required for the same result in case of 41. Approximately 65% of phenylacetic acid was released after 180 s of irradiation with orange light from model target conjugate 41 (FIG. 6a). The current state of the art BODIPY derivative (for the structure, see the next section),^20,21 released only 12% phenylacetic acid after irradiation for 1800 s. Contrary to the general expectations that increasing the wavelength diminishes photolysis rates, the uncaging of the redshifted Q=CMe2 derivative 43 was also very effective, reaching >70% release of phenylacetic acid in 120 s after red light irradiation (FIG. 6c). The high efficiency of 43 as a red light-activatable photoremovable protecting group was also compared to a π-extended BODIPY derivative (substrate 7 in REF^21, using methanol as the solvent in a concentration of 0.1 mM), the current state of the art in this region of visible light.
Importantly, except in the case of compounds wherein the connecting chemical moiety was a carbonate moiety (i.e., compound 51, FIG. 6f), the target conjugates were stable in water as well as in PBS for 24 hours in the dark. The stability and uncaging rates of several leaving groups was also assessed. Comparing the most important functional groups (carboxylic acid, amine, phenol, alcohol) in potential active agents connected via the typical linkages in the target conjugates, the carbonate bond was the most labile (compound 51, >70% decomposition in 30 s with red light at 50% power) although the long-term dark stability was poor. None of the other model active agents were released in significant quantities, however, after 24-28 hours in the dark (for dark stability data see FIGS. 6a-6h, right side).
Using HPLC-MS, not only the appearance of the released model active agents could be monitored but also the products of photolysis were detectable. […]

[3] = Uncaging quantum yield determination relative to BODIPY reference; format: physicochemical; settings: for ε × Φu, uncaging cross-section / quantum efficiency: at the wavelength in parentheses beside each value (538-660 nm); for Φu, uncaging quantum yield: calculated from active agent release; for Φu, uncaging quantum yield / Φdeg, degradation quantum yield: green light irradiation; for Φdeg, degradation quantum yield: calculated from the disappearance of the target conjugate
Protocol: The relative photochemical quantum yields of the uncaging reactions together with the degradation quantum yields were determined from the results of the quantitative HPLC-UV experiments. In all cases, green light irradiation was used since all target conjugates absorbed in this range as well as the reference BODIPY. The photochemical quantum yields were determined using the following equation:
[formula] • where • Φu is the photochemical quantum yield of the sample • Φu,ref is the photochemical quantum yield of the reference • k is the obtained reaction rate constant of the photoreaction of the sample • kref is the obtained reaction rate constant of the photoreaction of the reference • c is the concentration of the sample • cref is the concentration of the reference • V is the volume of the sample • Vref is the volume of the reference • a is the absorption correction factor of the sample • aref is the absorption correction factor of the reference
The absorption correction factors (a) were determined from the molar absorption coefficients and the green LED emission data obtained by the fluorimeter. […] In other words, the transmittance at each wavelength together with the emission data of the light source can be used to calculate the percentage of absorbed photons according to the following equation:
[formula] • where • T(λ) is the transmittance at each wavelength (determined from the molar absorption coefficients) • F(λ) is the LED emission at each wavelength • λmin, λmax is the LED emission range.
The rate constants of the photoreactions were determined by considering the reactions monoexponential with an initial linear phase (up to 10-20% degradation). First, the concentration vs. HPLC-UV peak were determined for each cargo moieties. […] The rate constants were determined for both the reference (with known Φu) and the sample. For reference, a commonly known BODIPY derivative was used with a similar phenylacetic acid-derived cargo unit (substrate 7 from REF^40), Φu=0.15%:
The calculated photochemical quantum yields together with uncaging cross-sections or quantum efficiencies (product of the molar absorption coefficient at a given wavelength, shown in parentheses and the photochemical quantum yield) are shown in Table 2. In the table, Φu is the photochemical quantum yield of the release; Φdeg is the photochemical quantum yield of degradation; ε×Φu is the uncaging cross-section or quantum efficiency of the release at a given wavelength in parentheses.

CCc1c2c(nc3ccc(O)cc13)-c1cc3c(c(=O)n1C2)COC(=O)[C@]3(O)CC [SN38, 7-ethyl-10-hydroxycamptothecin, reference compound]
cell viability (SK-OV-3 cells; 50 nM): 29% | cell viability (SK-OV-3 cells; 100 nM): 27% | cell viability (SK-OV-3 cells; 200 nM): 30% | EC50 (SK-OV-3 cells; dark, 72 h, MTT, read-out: Dark EC50 values): 6.2 nM

CC(OCc1ccccc1)C1=C2C=CC(=[N+]3CCCC3)C=C2C(C)(C)c2cc(N3CCCC3)ccc21.[I-] (stereo not drawn) [Compound 35, 1-(10-(1-(benzyloxy)ethyl)-9,9-dimethyl-7-(pyrrolidin-1-yl)anthracen-2 (9H)-ylidene)pyrrolidin-1-ium iodide]
λem (fluorescence emission maximum) [1]: 659 nm | λmax (absorption maximum) [1]: 635 nm | ε (molar absorption coefficient) [1]: 81 200 M^−1cm^−1

CC(OC(=O)Cc1ccccc1)C1=C2C=CC(=[N+]3CCCC3)C=C2C(C)(C)c2cc(N3CCCC3)ccc21.[I-] (stereo not drawn) [Compound 43, 1-(9,9-dimethyl-10-(1-(2-phenylacetoxy)ethyl)-7-(pyrrolidin-1-yl)anthracen-2 (9H)-ylidene)pyrrolidin-1-ium iodide]
increase in the photolysis rate versus π-extended BODIPY derivative ([2]; methanol, 0.1 mM): approximately 5 fold | release of phenylacetic acid ([2]; 120 s): > 70% | λem (fluorescence emission maximum) [1]: 674 nm | λmax (absorption maximum) [1]: 641 nm | ε (molar absorption coefficient) [1]: 86 000 M^−1cm^−1 | ε × Φu, uncaging cross-section / quantum efficiency [3]: 1400 M⁻¹ cm⁻¹ | Φu, uncaging quantum yield [3]: 1.7% | Φdeg, degradation quantum yield [3]: 2.2%

CC[N+]1=c2cc3c(cc2C(C)CC1(C)C)=C(C(C)OC(=O)Cc1ccccc1)c1cc2c4c(c1C3(C)C)CCCN4CCC2 (stereo not drawn) [Compound 45]
λem (fluorescence emission maximum) [1]: 680 nm | λmax (absorption maximum) [1]: 660 nm | ε (molar absorption coefficient) [1]: 83 800 M^−1cm^−1 | ε × Φu, uncaging cross-section / quantum efficiency [3]: 1390 M⁻¹ cm⁻¹ | Φu, uncaging quantum yield [3]: 1.6% | Φdeg, degradation quantum yield [3]: 2.6%

CC(OC(=O)N1CCN(c2ccccc2)CC1)C1=C2C=CC(=[N+]3CCCC3)C=C2C(C)(C)c2cc(N3CCCC3)ccc21 (stereo not drawn) [Compound 49, 1-(9,9-dimethyl-10-(1-((4-phenylpiperazine-1-carbonyl)oxy)ethyl)-7-(pyrrolidin-1-yl)anthracen-2 (9H)-ylidene)pyrrolidin-1-ium]
λem (fluorescence emission maximum) [1]: 673 nm | λmax (absorption maximum) [1]: 637 nm | ε (molar absorption coefficient) [1]: 75 100 M^−1cm^−1 | ε × Φu, uncaging cross-section / quantum efficiency [3]: 690 M⁻¹ cm⁻¹ | Φu, uncaging quantum yield [3]: 0.92% | Φdeg, degradation quantum yield [3]: 1.7%
